In patent US9527859B2, “Amidopyridine derivative and use thereof” (Mitsubishi Tanabe Pharma Corporation, priority 2012, dated 2016):

Test: Single dose toxicity study in dogs
Type: in vivo, dog
Details: beagle dogs, single oral dose 10, 30, 100 mg/kg
Method: Single Dose Toxicity Study in Dogs
The study was carried out with TOYO beagles (KITAYAMA LABES CO., LTD., Hongou farm), four dogs per each sex. They were 5-month old on arrival at testing facility, and were 10-month old when started to be administered. Basal diet was 300 g/day, DS-A (Oriental Yeast Co., Ltd.), and drinking water was tap water. Allocation to the groups was carried out so that an animal number was allocated in order of quarantine number for males and females respectively whose clinical signs and results of clinical laboratory test were considered to be normal.
As to a dosing suspension, 0.5 w/v % HPMC aqueous solution was used as a vehicle, the required amounts of test compound were pre-weighed for each dose group, and it was prepared in a specified concentration with mortar and pestleon the day of administration. Dose volume was 5 mL/kg (calculated on the basis of body weight measured on the day of administration). […]
A clinical sign was observed before administration and during TK blood sampling on the day of administration, and once in the morning every day on the day other than administration. Body weight was measured in the pre-dosing term (−5th day, −1st day), on the day of administration and on the next day after administration.
Feeding was carried out every day, and food consumption (g/day) was calculated from the remaining food in the next morning after feeding. […]

Cc1c(C(=O)Nc2cnc(N3CCC(O)CC3)c(C3CC3)c2)cnn1-c1ccc(Cl)cc1 [Example 39, 1-(4-chlorophenyl)-N-[5-cyclopropyl-6-(4-hydroxypiperidin-1-yl)pyridin-3-yl]-5-methyl-1H-pyrazole-4-carboxamide]
Changes caused by administration (clinical signs, body weight, food consumption, hematology, blood chemistry incl. ALT, AST, TBil): no changes caused by administration were found in any doses
